This note sets out measurements from patent US6121296A, “Transition-state inhibitors for nucleoside hydrolase and transferase reactions” (Albert Einstein College of Medicine of Yeshiva University, priority 1998, dated 2000).

For one assay, the target named is T1, nucleoside hydrolase (Crithidia fasciculata, UniProt Q27546).
T1 construct: nucleoside hydrolase was purified from C. fasciculata as described above; endogenous in cells; host or cells: Crithidia fasciculata cells grown in a 300-liter fermenter
T1 sequence (Q27546 1-315): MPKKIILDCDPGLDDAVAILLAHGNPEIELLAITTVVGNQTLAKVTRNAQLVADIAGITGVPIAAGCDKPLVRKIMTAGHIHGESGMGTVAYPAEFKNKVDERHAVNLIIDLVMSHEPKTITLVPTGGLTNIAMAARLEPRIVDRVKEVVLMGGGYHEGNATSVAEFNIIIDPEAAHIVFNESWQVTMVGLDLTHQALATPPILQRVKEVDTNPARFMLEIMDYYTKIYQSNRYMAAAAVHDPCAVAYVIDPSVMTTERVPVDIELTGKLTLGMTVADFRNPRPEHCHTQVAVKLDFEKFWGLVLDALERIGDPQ
The assay is described as follows: Nucleoside hydrolase purified from C. fasciculata: substrate kinetics and inhibition (Table III). The following applies: for inhibition pattern: vs inosine; for Substrate or inhibitor concentration (substrate activity limit; nucleoside concentration in parentheses): Table III lower part; for Km / Vmax: Table III; for Km / Vmax / Vmax /Km: compound as substrate. It counts as biochemical. As to the method:
The assay volumes were […]. The reaction was terminated by the addition of […] of 1.0 M HCl. […] The color was developed at 95° C. for 8 minutes and the optical absorbance measured at 450 nm. Enzymatic activity was expressed as millimoles of reducing sugar formed per minute per milligram of protein. During the initial stages of purification a modified assay which removes excess protein was used. Protein solutions of 1-5 ml were added to 100 ml of the assay mixture and incubated for the desired time. The assay was terminated by the addition of […] of 0.1 M ZnSO4. Excess Zn^2+ was removed by the addition of […] of 0.1 M NaOH. After centrifugation, 250 ml of supernatant was removed and assayed for reducing sugar. […] Arsenate readily replaces phosphate in the reaction and the product ribose 1-arsenate rapidly hydrolazes to release ribose which is detected in the reducing sugar assay.
At other pH values, a mixed buffer system was used which contained 30 mM each of acetate. Mes, Pipes, Hepes, Bicine, and Ches were adjusted to the desired pH with HCl or NaOH. The reaction was initiated with a small volume of enzyme and the increase in absorbance recorded at 280 nm.
Assay mixtures of 19 ml contained the desired concentration of inosine and inhibitor(s) together with approximately 3×10^4 cpm of radioactive inosine in 50 mM Hepes or triethanolamine buffer, pH 7.3. […] Samples of […] were removed at the appropriate intervals and spotted on polyethyleneimine cellulose thin layer plates which had been previously spotted with 4 ml of a solution containing 2.2 mM each of inosine and hypoxanthine.
Reaction mixtures were incubated for 5-27 hours and samples analyzed on a 7.8 mm×30 cm C18 -HPLC column eluted with 5 or 10% methanol in H2 O, 4 ml/minute. Samples were detected by the absorbance at 257 nm. Substrate activity with deoxyinosine was also measured at 500 MHz by NMR. […] Proton NMR spectra were collected in sets of eight scans over 15 minutes at room temperature.
Apparent inhibition constants (Ki(app)) were determined from the relationship shown in the following equation:
Vo /Vi +(inosine±Km (1+I/Ki(app))/(inosine+Km)
where Vo and Vi are the initial reaction rates without and with inhibitor, respectively. Km is the Michaelis constant for inosine, I is inhibitor concentration and Ki(app) is the apparent dissociation constant for inhibitor. In cases where the inhibitor is competitive with respect to substrate, Ki(app) is the dissociation constant for the enzyme-inhibitor complex.

In another assay the target is T2, IU-nucleoside hydrolase (Crithidia fasciculata, UniProt Q27546, P2A).
T2 construct: contained the coding region for the enzyme; made in house; host or cells: E. coli BL21 (DE3)pLysS, pET3d plasmid
As to the kind of experiment: biochemical. The following applies: for Ki: KI IU-nucleoside hydrolase, Table V. It counts as biochemical, C. fasciculata. From the text:
Enzymes. Inosine-uridine nucleoside hydrolase (IU-nucleoside hydrolase) was purified from extracts of E. coli strain BL21 (DE3)pLysS which contained the coding region for the enzyme isolated from C. fasciculata in a pET3d expression plasmid. The DNA coding for the enzyme was placed in the NcoI-BamHI site. This construct gives a Pro2Ala substitution which has no significant effect on the kinetic properties of the purified enzyme. The overexpressed enzyme was purified to apparent homogeneity as previously described (Gopaul, et al. (1996) Biochemistry 35, 5963-5970).
(§1) Enzyme Assays. Initial rate measurements were accomplished at 30° C. in reaction mixtures containing 50 mM potassium phosphate, pH 7.5, or 50 mM Hepes, pH 8.0, and nitrophenylribose or inosine as substrates (Mazella, et al. (1996) J. Am. Chem. Soc. 118, 2111-2112). At pH 7.5 the product p-nitrophenylate anion is present at a concentration which gives a millimolar extinction coefficient of 9.3 cm^-1 at 400 nm. Reaction mixtures with nitrophenylribose as substrate were initiated by the addition of enzyme, and product formation was monitored by continuous recording at 400 nm. With inosine as substrate, the conversion to hypoxanthine was monitored continuously at 280 nm (Parkin, et al. (1991) J. Biol. Chem. 266, 20658-20665). […] The remainder of the inhibitors were analyzed at one fixed substrate concentration and variable inhibitor concentrations. Inhibition constants for IAG-nucleoside hydrolase were established from full kinetic analysis with V and X as inhibitors. […] The remainder of the inhibition constants were characterized by titration of assay mixtures containing a fixed concentration of substrate with variable inhibitor concentrations. […] For Ki determination at a fixed substrate concentration, this approach assumes that substrate and inhibitor compete for the catalytic site.
Inhibitors. Iminoribitol inhibitor were synthesized and purified according to the methods of Furneaux, et al. (Tetrahedron (1997) in press), characterized by NMR, dissolved in H2 O and stored at -20° C. The compounds are enzymatically and chemically stable in H2 O and under conditions of the assay. IU-Nucleoside hydrolase is susceptible to slow-onset tight-binding inhibition under certain conditions (Horenstein & Schramm, (1993b) Biochemistry 32, 9917-9925, Boutellier, et al. (1994) Biochemistry, 33, 3994-4000). However, in the initial reaction rate conditions described here, only the rapidly reversible competition between substrate and inhibitor is being observed. Thus, the reported kinetic constants are dissociation constants which exclude slow-onset binding.

Another assay concerns the target IAG-nucleoside hydrolase (Trypanosoma brucei, UniProt Q57ZL6). The assay is described as follows: Inhibition of IAG-nucleoside hydrolase, initial rates. Particulars: for inhibition at highest concentration tested: 80, 120, 120 and 160 μM II, III, IV and VI respectively, 75 μM inosine. On the procedure: The enzyme was purified to apparent homogeneity as determined by denaturing polyacrylamide gel electrophoresis (Parkin, (1996) J. Biol. Chem. 271, 21713-21719). Some of the studies used the T. brucei brucei enzyme which was overexpressed in E. coli.
as §1, with “concentrations.” for “concentrations. Inhibition constants for IAG-nucleoside hydrolase were established from full kinetic analysis with V and X as inhibitors.”
Inhibitors. Iminoribitol inhibitor were synthesized and purified according to the methods of Furneaux, et al. (Tetrahedron (1997) in press), characterized by NMR, dissolved in H2 O and stored at -20° C.

[1] abbreviates: apparent constant, single inosine concentration near Km, three inhibitor concentrations, read-out: Ki(app).

“Also recorded” adds a separate entry of the source. Read-outs that look alike come from different tables or passages of the source.

T2 sequence (Q27546 whole entry P2A): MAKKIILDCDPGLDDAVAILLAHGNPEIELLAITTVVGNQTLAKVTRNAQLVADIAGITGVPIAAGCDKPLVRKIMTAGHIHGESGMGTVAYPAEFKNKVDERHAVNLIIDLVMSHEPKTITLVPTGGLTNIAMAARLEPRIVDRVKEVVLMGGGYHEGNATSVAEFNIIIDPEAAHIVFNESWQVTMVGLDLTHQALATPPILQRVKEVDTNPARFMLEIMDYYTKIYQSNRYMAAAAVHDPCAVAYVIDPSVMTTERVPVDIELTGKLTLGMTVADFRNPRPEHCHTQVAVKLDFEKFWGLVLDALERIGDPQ
Chain of IAG-nucleoside hydrolase (Q57ZL6 entry or part of it): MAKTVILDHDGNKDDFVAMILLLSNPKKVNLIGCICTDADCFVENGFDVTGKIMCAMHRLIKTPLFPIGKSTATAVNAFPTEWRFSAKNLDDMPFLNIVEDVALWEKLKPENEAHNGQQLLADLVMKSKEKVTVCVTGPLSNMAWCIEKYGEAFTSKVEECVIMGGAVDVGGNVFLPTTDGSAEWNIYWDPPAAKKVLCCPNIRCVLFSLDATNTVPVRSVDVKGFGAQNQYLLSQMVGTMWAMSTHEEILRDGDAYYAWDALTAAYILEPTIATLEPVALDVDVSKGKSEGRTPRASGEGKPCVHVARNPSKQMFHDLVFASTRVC

For the compound `O=c1[nH]cnc2nc[nH]c12` [Hypoxanthine], at nucleoside hydrolase, the Ki came to 6.2 ± 0.9 mM and the inhibition pattern entry was “slope-linear, competitive patterns”.
As to `C[C@H]1O[C@@H](n2cnc3c(=O)[nH]cnc32)[C@H](O)[C@@H]1O` [5d-inosine], the “substrate activity” value at nucleoside hydrolase was “Low rates of product formation”.
As to `O=C(O)c1ccc([C@@H]2N[C@H](CO)[C@@H](O)[C@H]2O)cc1` [VI], the Ki at IU-nucleoside hydrolase is 96 ± 7 nM. Moreover, at IAG-nucleoside hydrolase, the Ki is over 0.48 mM, the “Km /KI IAG-nucleoside hydrolase” value was under 0.04 and the “inhibition at highest concentration tested” value is “NO inhibition was observed”.
As for `O=c1[nH]cnc2c([C@@H]3O[C@H](CO)[C@@H](O)[C@H]3O)n[nH]c12` [Formycin B], on nucleoside hydrolase, the Ki came out at 1.96 mM and the “Substrate or inhibitor concentration (substrate activity limit; nucleoside concentration in parentheses)” value is reported as under 0.02.
The matching figures for `CSC[C@H]1O[C@@H](n2cnc3c(N)ncnc32)[C@H](O)[C@@H]1O` [5'-Methylthioadenosine]: 5.7 mM and under 0.0003.
Turning to `Cc1cn([C@H]2C[C@H](O)[C@@H](CO)O2)c(=O)[nH]c1=O` [Thymidine], at nucleoside hydrolase, the Ki is 7.8 mM, the “substrate activity” value is recorded as “no activity being detected” and the “Substrate or inhibitor concentration (substrate activity limit; nucleoside concentration in parentheses)” value is on record as under 0.0008. Besides, the “apparent Vmax difference, 5-methyluridine vs thymidine” value at nucleoside hydrolase (effect of the 2'-hydroxyl) is > 10^5.
`Nc1ncnc2c1ccn2[C@@H]1O[C@H](CO)[C@@H](O)[C@H]1O` [7-Deazaadenosine, 7-deazaadenosine]: at nucleoside hydrolase, the Ki was 2.3 mM, the “rate of hydrolysis relative to the rate with inosine (detection level)” value was < 3×10^-4, the “Substrate or inhibitor concentration (substrate activity limit; nucleoside concentration in parentheses)” value is on record as under 0.0008 and the inhibition pattern entry was “competitive inhibitor”. For the same compound, at nucleoside hydrolase (listed as tubercidin), the “substrate activity” value is “not a substrate; also recorded: lack of substrate activity”.
With `O=[N+]([O-])c1ccc([C@@H]2N[C@H](CO)[C@@H](O)[C@H]2O)cc1` [IV], the Ki on IU-nucleoside hydrolase was 1100 ± 100 nM. Also, at IAG-nucleoside hydrolase, the Ki was over 0.36 mM, the “Km /KI IAG-nucleoside hydrolase” value is reported as under 0.05 and the “inhibition at highest concentration tested” value is “NO inhibition was observed”.
Take `OC[C@H]1N[C@@H](c2ccc(O)cc2)[C@H](O)[C@@H]1O` [VII]: the Ki at IU-nucleoside hydrolase was determined as 75 ± 4 nM. In addition, on IAG-nucleoside hydrolase, the Ki was determined as 0.035 ± 0.002 mM and the “Km /KI IAG-nucleoside hydrolase” value worked out at 0.51.
With `OC[C@H]1N[C@@H](c2ccc(Br)cc2)[C@H](O)[C@@H]1O` [XII], the Ki on IU-nucleoside hydrolase is 28 ± 4 nM; on IAG-nucleoside hydrolase, 0.113 ± 0.005 mM. In addition, on IU-nucleoside hydrolase (minimum of four substrate and three inhibitor concentrations), the inhibition pattern result was “slope-linear competitive inhibitors”. The “Km /KI IAG-nucleoside hydrolase” value on IAG-nucleoside hydrolase was 0.16.
As for `OC[C@H]1O[C@@H](n2cnc3c(O)ncnc32)[C@H](O)[C@@H]1O` [Inosine], on nucleoside hydrolase, the “Vmax /Km for inosine relative to adenosine” value was 7.8 times; the Km (as a rule, the substrate concentration at which the rate is half of its maximum) came out at 380 ± 30 µM; the Vmax (usually the top rate of the reaction or transport when substrate is in excess) was 50 ± 2 µmol/min/mg; the “Vmax /Km” value is listed as 7.6×10^-4 M^-1 S^-1.
In the case of `OC[C@H]1O[C@@H](n2cnc3cncnc32)[C@H](O)[C@@H]1O` [Purine riboside], on nucleoside hydrolase, the “substrate activity” value is “poor substrate” and the “Vmax /Km” value is listed as 1.5×10^2 M^-1 S^-1.
Consider Cytosine, for which, on nucleoside hydrolase, the Km is 4700 µM, the Vmax was 36 ± 3 µmol/min/mg and the “Vmax /Km” value was 4.5 × 10^3 M^-1 S^-1.
For `Nc1ncnc2c1ncn2C1CC(O)C(CO)O1` (stereo not drawn) [d-Adenosine], the “Substrate or inhibitor concentration (substrate activity limit; nucleoside concentration in parentheses)” value on nucleoside hydrolase is on record as under 0.0006. The Ki on nucleoside hydrolase (setting [1]) was found to be 3.2 mM.
Consider `O=[N+]([O-])c1ccc(O[C@@H]2O[C@H](CO)[C@@H](O)[C@H]2O)cc1` [nitrophenylribose, reference compound], for which the Km on IU-nucleoside hydrolase (compound as substrate) was found to be 64 ± 6 µM.
On to `O=c1[nH]cnc2c1ncn2[C@H]1C[C@H](O)[C@@H](CO)O1` [d-Inosine], for which the “Substrate or inhibitor concentration (substrate activity limit; nucleoside concentration in parentheses)” value on nucleoside hydrolase is under 0.0003. For the same compound, the Ki at nucleoside hydrolase (setting [1]) came to 2.3 mM.
As for `C[C@H]1O[C@@H](n2cnc3c(N)ncnc32)[C@H](O)[C@@H]1O` [5d-adenosine, 5'-Deoxyadenosine], on nucleoside hydrolase, the “substrate activity” value is “Low rates of product formation”.
Regarding `O=C[C@H](O)[C@H](O)[C@H](O)CO` [Ribose], on nucleoside hydrolase, the Ki was found to be 0.7 ± 0.1 mM and the inhibition pattern entry is “slope-linear, competitive patterns”.
Consider `Nc1ncnc2c1ncn2[C@@H]1O[C@H](CO)C[C@H]1O` [3'-d-Adenosine], for which, on nucleoside hydrolase, the Ki amounted to 7.29 mM and the “Substrate or inhibitor concentration (substrate activity limit; nucleoside concentration in parentheses)” value was under 0.16.
With `Nc1ncnc2c1ncn2[C@@H]1O[C@H](COP(=O)(O)O)[C@@H](O)[C@H]1O` [AMP], on nucleoside hydrolase, the Ki was determined as 44 mM and the “Substrate or inhibitor concentration (substrate activity limit; nucleoside concentration in parentheses)” value is given as under 0.01.
